# Reference: patent US8163929B2, “Dihydropyridone amides as P2X7 modulators” (Roche Palo Alto LLC, priority 2008, dated 2012)
# Target: T1, P2X7 (UniProt Q99572)
# T1 sequence (Q99572 1-595): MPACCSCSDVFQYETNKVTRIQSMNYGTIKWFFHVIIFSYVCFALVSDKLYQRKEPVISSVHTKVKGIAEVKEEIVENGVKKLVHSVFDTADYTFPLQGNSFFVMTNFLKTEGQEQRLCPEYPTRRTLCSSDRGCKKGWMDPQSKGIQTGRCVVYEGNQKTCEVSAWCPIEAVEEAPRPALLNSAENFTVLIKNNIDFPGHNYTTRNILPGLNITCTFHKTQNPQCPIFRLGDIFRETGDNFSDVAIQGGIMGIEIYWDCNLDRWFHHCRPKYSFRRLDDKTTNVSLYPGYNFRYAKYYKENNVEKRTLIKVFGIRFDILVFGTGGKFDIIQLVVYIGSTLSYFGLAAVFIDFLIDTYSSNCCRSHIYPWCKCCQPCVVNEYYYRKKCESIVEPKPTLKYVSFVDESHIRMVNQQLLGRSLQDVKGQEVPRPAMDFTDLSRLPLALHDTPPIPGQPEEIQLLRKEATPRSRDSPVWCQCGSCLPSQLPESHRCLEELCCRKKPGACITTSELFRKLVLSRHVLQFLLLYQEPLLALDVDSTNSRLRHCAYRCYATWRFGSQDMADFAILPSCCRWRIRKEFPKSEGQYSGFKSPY
# Experiment: P2X7 activity of Table 1
# Assay type: cell-based
# Details: pIC50 values for P2X7
# Method in brief: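 FLIPR calcium flux with fluo-3 in 1321N1 cells expressing human P2X7 and HEK293 cells expressing rat P2X7, in HBSS with 2 mM CaCl2 and 2.5 mM probenecid. Antagonist pre-incubated 20 min at room temperature, then BzATP added (100 μM human, 5 μM rat). Peak response over 5 min normalised to 5 μM ionomycin.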
row,pIC50,Compound
1,7.8,"Cc1ccc(-c2ccnn(CCO)c2=O)cc1NC(=O)C1=CN(C)C(=O)C[C@H]1c1ccc(F)cc1 [Compound 94, (S)-4-(4-Fluoro-phenyl)-1-methyl-6-oxo-1,4,5,6-tetrahydro-pyridine-3-carboxylic acid {5-[2-(2-hydroxy-ethyl)-3-oxo-2,3-dihydro-pyridazin-4-yl]-2-methyl-phenyl}-amide]"
2,7.735,"Cc1ccc(-c2cc(C)n(CCO)n2)cc1NC(=O)C1=CNC(=O)C[C@H]1c1ccc(F)cc1 [Compound 2, (S)-4-(4-Fluoro-phenyl)-6-oxo-1,4,5,6-tetrahydro-pyridine-3-carboxylic acid {5-[1-(2-hydroxy-ethyl)-5-methyl-1H-pyrazol-3-yl]-2-methyl-phenyl}-amide]"
3,7.45,"COC[C@H](O)Cn1nc(-c2ccc(C)c(NC(=O)C3=CN(C)C(=O)C[C@H]3c3ccc(F)cc3)c2)cc1C [Compound 76, (S)-4-(4-Fluoro-phenyl)-1-methyl-6-oxo-1,4,5,6-tetrahydro-pyridine-3-carboxylic acid {5-[1-((R)-2-hydroxy-3-methoxy-propyl)-5-methyl-1H-pyrazol-3-yl]-2-methyl-phenyl}-amide]"
4,7.62,"Cc1ccc(-c2ccnn(C)c2=O)cc1NC(=O)C1=CN(C)C(=O)C[C@H]1c1cccc(F)c1 [Compound 86, (S)-4-(3-Fluoro-phenyl)-1-methyl-6-oxo-1,4,5,6-tetrahydro-pyridine-3-carboxylic acid [2-methyl-5-(2-methyl-3-oxo-2,3-dihydro-pyridazin-4-yl)-phenyl]-amide]"
5,7.423,"Cc1ccc(-c2cc(C)n(C[C@@H](O)CO)n2)cc1NC(=O)C1=CNC(=O)C[C@H]1c1ccc(F)cc1 [Compound 19, (S)-4-(4-Fluoro-phenyl)-6-oxo-1,4,5,6-tetrahydro-pyridine-3-carboxylic acid {5-[1-((R)-2,3-dihydroxy-propyl)-5-methyl-1H-pyrazol-3-yl]-2-methyl-phenyl}-amide]"
6,7.57,"COC[C@H](O)Cn1nccc(-c2ccc(C)c(NC(=O)C3=CN(C)C(=O)C[C@H]3c3ccc(F)cc3)c2)c1=O [Compound 105, (S)-4-(4-Fluoro-phenyl)-1-methyl-6-oxo-1,4,5,6-tetrahydro-pyridine-3-carboxylic acid {5-[2-((R)-2-hydroxy-3-methoxy-propyl)-3-oxo-2,3-dihydro-pyridazin-4-yl]-2-methyl-phenyl}-amide]"

# More lines, now with the values behind:
row,Compound,pIC50
1,"Cc1cnc(-c2ccc(C)c(NC(=O)C3=CNC(=O)C[C@H]3c3ccc(F)cc3)c2)cn1 [Compound 45, (S)-4-(4-Fluoro-phenyl)-6-oxo-1,4,5,6-tetrahydro-pyridine-3-carboxylic acid [2-methyl-5-(5-methyl-pyrazin-2-yl)-phenyl]-amide]",7.01
2,"Cc1ccc(-c2cscn2)cc1NC(=O)C1=CNC(=O)C[C@H]1c1ccc(F)cc1 [Compound 57, (S)-4-(4-Fluoro-phenyl)-6-oxo-1,4,5,6-tetrahydro-pyridine-3-carboxylic acid (2-methyl-5-thiazol-4-yl-phenyl)-amide]",8.06
3,"Cc1ncn(-c2ccc(C)c(NC(=O)C3=CNC(=O)C[C@H]3c3ccc(F)cc3)c2)n1 [Compound 27, (S)-4-(4-Fluoro-phenyl)-6-oxo-1,4,5,6-tetrahydro-pyridine-3-carboxylic acid [2-methyl-5-(3-methyl-[1,2,4]triazol-1-yl)-phenyl]-amide]",6.28
4,"Cc1cc(-c2ccc(Cl)c(NC(=O)C3=CNC(=O)C[C@H]3c3ccc(F)cc3)c2)n[nH]1 [Compound 33, (S)-4-(4-Fluoro-phenyl)-6-oxo-1,4,5,6-tetrahydro-pyridine-3-carboxylic acid [2-chloro-5-(5-methyl-1H-pyrazol-3-yl)-phenyl]-amide]",7.4067
5,"Cc1ccc(-c2nnn(C)n2)cc1NC(=O)C1=CNC(=O)C[C@H]1c1ccc(F)cc1 [Compound 3, (S)-4-(4-Fluoro-phenyl)-6-oxo-1,4,5,6-tetrahydro-pyridine-3-carboxylic acid [2-methyl-5-(2-methyl-2H-tetrazol-5-yl)-phenyl]-amide]",6.21
